Assay results published in patent publication US8080264B2, “Natural composition for curing hepatitis-B, methods for making the same and pharmaceutical formulations thereof” (Himalaya Global Holdings Ltd., priority 2004, dated 2011).

Tested on: HepG2 cells
Assay: Hepatoprotective effects in vitro against TBH oxidative damage
Details: MTT, TBH challenge

## CC(C)(C)OO [TBH, Tertiary Butyl Hydro peroxide]
  Survival (%): 52.53%
